# Assay results published in EP4745137A1 (Gluetacs Therapeutics (Shanghai) Co., Ltd., priority 2023, dated 2025).
# How the values were obtained:
# [1] = molecular target: T1, WEE1 (Homo sapiens, UniProt P30291+Q96SW2); assay: Western-blot assay of substrate protein degradation in hPBMCs, WEE1; assay type: cell-based; conditions: 24 hours of compound treatment, compounds tested at 50 nM and 500 nM (concentration of the table not stated)
# T1 construct: endogenous in cells; host or cells: hPBMCs (Milecell Biotechnologies)
# T1 sequence (P30291 whole entry): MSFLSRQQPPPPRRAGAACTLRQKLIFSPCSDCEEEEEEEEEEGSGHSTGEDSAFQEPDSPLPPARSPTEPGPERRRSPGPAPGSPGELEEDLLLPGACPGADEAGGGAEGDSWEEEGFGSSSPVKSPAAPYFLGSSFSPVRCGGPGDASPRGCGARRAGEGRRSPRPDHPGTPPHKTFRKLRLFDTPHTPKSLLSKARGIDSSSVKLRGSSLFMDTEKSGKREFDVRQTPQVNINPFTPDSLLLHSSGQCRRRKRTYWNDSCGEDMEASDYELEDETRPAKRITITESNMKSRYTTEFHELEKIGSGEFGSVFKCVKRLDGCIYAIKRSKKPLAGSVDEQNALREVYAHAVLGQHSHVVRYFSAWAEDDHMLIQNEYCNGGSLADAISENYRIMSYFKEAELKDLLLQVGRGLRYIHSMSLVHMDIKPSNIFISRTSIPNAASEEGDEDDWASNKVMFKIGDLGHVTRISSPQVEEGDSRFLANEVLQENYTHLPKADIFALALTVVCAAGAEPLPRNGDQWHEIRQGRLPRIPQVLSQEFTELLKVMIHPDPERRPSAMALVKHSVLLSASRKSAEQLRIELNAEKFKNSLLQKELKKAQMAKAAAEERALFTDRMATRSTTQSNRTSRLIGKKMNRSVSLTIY
# T1 sequence (Q96SW2 whole entry): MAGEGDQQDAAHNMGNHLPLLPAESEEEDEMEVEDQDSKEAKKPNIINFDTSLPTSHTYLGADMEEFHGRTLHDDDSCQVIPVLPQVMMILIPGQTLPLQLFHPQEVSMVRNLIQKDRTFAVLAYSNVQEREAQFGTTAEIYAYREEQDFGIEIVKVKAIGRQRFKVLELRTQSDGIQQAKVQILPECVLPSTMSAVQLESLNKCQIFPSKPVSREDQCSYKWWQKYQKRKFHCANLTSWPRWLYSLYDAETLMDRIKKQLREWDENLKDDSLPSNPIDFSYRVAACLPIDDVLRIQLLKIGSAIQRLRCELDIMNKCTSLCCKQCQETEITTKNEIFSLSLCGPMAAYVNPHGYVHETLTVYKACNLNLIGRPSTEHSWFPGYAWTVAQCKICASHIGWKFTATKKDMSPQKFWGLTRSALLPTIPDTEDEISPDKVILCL
# T1 sequence (Q16531 whole entry partner): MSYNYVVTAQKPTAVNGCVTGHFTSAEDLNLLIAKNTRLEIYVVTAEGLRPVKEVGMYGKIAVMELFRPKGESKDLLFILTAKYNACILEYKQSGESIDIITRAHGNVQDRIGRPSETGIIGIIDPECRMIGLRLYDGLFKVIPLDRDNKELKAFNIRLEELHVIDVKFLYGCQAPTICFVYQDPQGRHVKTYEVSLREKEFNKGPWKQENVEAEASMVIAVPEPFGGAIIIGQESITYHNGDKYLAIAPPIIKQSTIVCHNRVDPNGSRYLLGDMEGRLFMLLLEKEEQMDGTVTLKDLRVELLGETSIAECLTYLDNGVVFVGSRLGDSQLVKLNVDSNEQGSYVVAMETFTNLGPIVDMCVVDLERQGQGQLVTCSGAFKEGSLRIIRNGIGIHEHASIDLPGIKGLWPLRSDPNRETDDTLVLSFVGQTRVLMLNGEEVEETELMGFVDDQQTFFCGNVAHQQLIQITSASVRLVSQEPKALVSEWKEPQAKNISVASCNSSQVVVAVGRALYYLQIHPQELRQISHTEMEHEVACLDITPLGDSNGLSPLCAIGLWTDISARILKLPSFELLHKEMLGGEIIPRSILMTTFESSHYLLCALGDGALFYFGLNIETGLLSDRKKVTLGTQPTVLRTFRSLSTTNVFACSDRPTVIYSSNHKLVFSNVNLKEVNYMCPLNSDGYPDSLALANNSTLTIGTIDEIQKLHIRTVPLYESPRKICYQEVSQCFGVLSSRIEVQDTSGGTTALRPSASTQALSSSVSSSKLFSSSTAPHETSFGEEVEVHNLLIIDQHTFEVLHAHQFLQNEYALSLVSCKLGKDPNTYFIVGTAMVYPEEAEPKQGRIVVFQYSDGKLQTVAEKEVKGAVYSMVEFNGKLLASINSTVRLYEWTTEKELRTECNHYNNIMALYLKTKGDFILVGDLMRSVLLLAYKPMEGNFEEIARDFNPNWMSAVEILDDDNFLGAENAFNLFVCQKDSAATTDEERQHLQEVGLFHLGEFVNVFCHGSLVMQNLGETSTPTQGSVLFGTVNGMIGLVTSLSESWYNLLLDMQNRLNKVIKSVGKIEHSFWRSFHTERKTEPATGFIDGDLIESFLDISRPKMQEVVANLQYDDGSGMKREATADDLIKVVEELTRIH
# [2] = molecular target: T2, IKZF1 (Homo sapiens, UniProt Q13422+Q96SW2); assay: Western-blot assay of substrate protein degradation in hPBMCs, IKZF1; assay type: cell-based; conditions: 24 hours of compound treatment, compounds tested at 50 nM and 500 nM (concentration of the table not stated)
# T2 construct: endogenous in cells; host or cells: hPBMCs (Milecell Biotechnologies)
# T2 sequence (Q13422 whole entry): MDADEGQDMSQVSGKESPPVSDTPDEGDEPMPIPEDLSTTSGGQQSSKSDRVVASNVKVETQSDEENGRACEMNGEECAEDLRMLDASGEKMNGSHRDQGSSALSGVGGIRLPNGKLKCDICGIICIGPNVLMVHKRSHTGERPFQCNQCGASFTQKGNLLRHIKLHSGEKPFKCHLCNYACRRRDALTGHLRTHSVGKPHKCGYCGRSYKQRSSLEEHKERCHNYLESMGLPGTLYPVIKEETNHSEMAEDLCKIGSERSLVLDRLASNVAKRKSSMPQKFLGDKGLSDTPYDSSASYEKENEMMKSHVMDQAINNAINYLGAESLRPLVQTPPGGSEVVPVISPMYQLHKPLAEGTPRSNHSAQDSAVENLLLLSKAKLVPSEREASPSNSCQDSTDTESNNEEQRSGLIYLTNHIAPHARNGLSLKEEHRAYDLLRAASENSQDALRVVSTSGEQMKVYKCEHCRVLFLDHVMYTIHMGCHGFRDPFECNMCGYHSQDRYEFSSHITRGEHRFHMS
# T2 sequence (Q96SW2 whole entry): as the sequence (Q96SW2 whole entry) above
# T2 sequence (Q16531 whole entry partner): as the sequence (Q16531 whole entry partner) above
# [3] = molecular target: T3, IKZF2 (Homo sapiens, UniProt Q96SW2+Q9UKS7); assay: Western-blot assay of substrate protein degradation in hPBMCs, IKZF2; assay type: cell-based; conditions: 24 hours of compound treatment, compounds tested at 50 nM and 500 nM (concentration of the table not stated)
# T3 construct: endogenous in cells; host or cells: hPBMCs (Milecell Biotechnologies)
# [4] = molecular target: T4, IKZF3 (Homo sapiens, UniProt Q96SW2+Q9UKT9); assay: Western-blot assay of substrate protein degradation in hPBMCs, IKZF3; assay type: cell-based; conditions: 24 hours of compound treatment, compounds tested at 50 nM and 500 nM (concentration of the table not stated)
# T4 construct: endogenous in cells; host or cells: hPBMCs (Milecell Biotechnologies)
# T4 sequence (Q9UKT9 whole entry): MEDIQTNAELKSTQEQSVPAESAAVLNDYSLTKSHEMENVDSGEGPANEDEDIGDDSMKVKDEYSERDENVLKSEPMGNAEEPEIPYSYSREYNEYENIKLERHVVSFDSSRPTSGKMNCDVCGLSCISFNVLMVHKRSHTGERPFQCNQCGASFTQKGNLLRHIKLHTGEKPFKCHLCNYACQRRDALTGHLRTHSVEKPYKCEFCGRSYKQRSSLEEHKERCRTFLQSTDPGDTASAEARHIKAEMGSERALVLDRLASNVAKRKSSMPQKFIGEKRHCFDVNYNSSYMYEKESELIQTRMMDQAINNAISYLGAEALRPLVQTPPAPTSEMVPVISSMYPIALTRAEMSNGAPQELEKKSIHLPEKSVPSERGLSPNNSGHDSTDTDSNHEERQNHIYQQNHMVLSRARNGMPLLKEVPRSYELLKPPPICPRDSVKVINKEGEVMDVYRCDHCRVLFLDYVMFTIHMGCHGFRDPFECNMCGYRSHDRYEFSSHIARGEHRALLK
# T4 sequence (Q96SW2 whole entry): as the sequence (Q96SW2 whole entry) above
# T4 sequence (Q16531 whole entry partner): as the sequence (Q16531 whole entry partner) above
# [5] = molecular target: T5, CK1α (Homo sapiens, UniProt P48729+Q96SW2); assay: Western-blot assay of substrate protein degradation in hPBMCs, CK1α; assay type: cell-based; conditions: 24 hours of compound treatment, compounds tested at 50 nM and 500 nM (concentration of the table not stated)
# T5 construct: endogenous in cells; host or cells: hPBMCs (Milecell Biotechnologies)
# T5 sequence (P48729 whole entry): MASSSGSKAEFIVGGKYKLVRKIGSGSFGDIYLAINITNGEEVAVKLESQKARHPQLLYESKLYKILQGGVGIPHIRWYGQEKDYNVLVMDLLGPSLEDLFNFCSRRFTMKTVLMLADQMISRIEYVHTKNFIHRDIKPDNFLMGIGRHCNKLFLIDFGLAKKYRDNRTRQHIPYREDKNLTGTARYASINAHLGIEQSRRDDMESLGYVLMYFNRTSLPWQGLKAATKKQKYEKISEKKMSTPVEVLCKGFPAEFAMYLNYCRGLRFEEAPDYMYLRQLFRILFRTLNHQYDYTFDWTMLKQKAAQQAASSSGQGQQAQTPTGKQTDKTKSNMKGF
# T5 sequence (Q96SW2 whole entry): as the sequence (Q96SW2 whole entry) above
# T5 sequence (Q16531 whole entry partner): as the sequence (Q16531 whole entry partner) above
# [6] = molecular target: T6, GSPT1 (Homo sapiens, UniProt P15170+Q96SW2); assay: Western-blot assay of substrate protein degradation in hPBMCs, GSPT1; assay type: cell-based; conditions: 24 hours of compound treatment, compounds tested at 50 nM and 500 nM (concentration of the table not stated)
# T6 construct: endogenous in cells; host or cells: hPBMCs (Milecell Biotechnologies)
# T6 sequence (P15170 whole entry): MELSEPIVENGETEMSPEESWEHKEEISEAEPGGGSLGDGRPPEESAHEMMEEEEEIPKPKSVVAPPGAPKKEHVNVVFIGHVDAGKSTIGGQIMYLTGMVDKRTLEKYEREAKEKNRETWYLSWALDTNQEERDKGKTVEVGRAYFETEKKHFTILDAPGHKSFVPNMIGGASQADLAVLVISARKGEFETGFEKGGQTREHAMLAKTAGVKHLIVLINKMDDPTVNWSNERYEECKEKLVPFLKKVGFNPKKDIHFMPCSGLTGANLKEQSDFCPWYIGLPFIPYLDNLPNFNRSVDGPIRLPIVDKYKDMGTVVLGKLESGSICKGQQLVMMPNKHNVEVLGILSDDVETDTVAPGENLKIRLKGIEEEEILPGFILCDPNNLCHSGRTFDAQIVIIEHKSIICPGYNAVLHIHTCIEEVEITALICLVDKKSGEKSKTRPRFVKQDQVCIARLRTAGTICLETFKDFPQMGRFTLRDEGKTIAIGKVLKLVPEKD
# T6 sequence (Q96SW2 whole entry): as the sequence (Q96SW2 whole entry) above
# T6 sequence (Q16531 whole entry partner): as the sequence (Q16531 whole entry partner) above
# [7] = molecular target: T7, human Cereblon WT GST-tagged protein (Homo sapiens, UniProt Q96SW2); assay: CRBN-binding affinity by HTRF (CEREBLON BINDING kit); conditions: HTRF inhibitory activity, CEREBLON BINDING kit; read-out: HTRF IC50
# T7 construct: purchased CISBIO 64BDCRBNPEH
# T7 sequence (Q96SW2 whole entry): as the sequence (Q96SW2 whole entry) above
# [8] = test system: Human acute T lymphocytic leukemia cells (Molt-4); assay: Tumor cell proliferation inhibition (CellTiter-Meiluncell Luminescent Cell Viability Assay), Molt-4; conditions: MOLT-4, 96 h, read-out: inhibitory activity (IC50, nM) against tumor cells proliferation, Molt 4
Structure (SMILES),Weel substrate protein remaining % [1],IKZF 1 substrate protein remaining % [2],IKZF2 substrate protein remaining % [3],IKZF3 substrate protein remaining % [4],CK1a substrate protein remaining % [5],GSPT1 substrate protein remaining % [6],IC50 [7] [nM],IC50 [8] [nM]
"O=C1CCC(N2Cc3cc(CN4CCC(c5ccco5)CC4)ccc3C2=O)C(=O)N1 (stereo not shown) [GT-04618, 3-(5-((4-(furan-2-yl)piperidin-1-yl)methyl)-1-oxoisoindolin-2-yl)piperidine-2,6-dione]",A (0% ≤ substrate protein remaining % ≤ 80%),A (0% ≤ substrate protein remaining % ≤ 80%),A (0% ≤ substrate protein remaining % ≤ 80%),A (0% ≤ substrate protein remaining % ≤ 80%),B (80%< substrate protein remaining %≤ 100%),A (0% ≤ substrate protein remaining % ≤ 80%),500 to 1000,50 to 100
"O=C1CCC(N2Cc3cc(CN4CC(c5ccnc6cc(F)ccc56)C4)ccc3C2=O)C(=O)N1 (stereo not shown) [GT-04651, 3-(5-((3-(7-fluoroquinolin-4-yl)azetidin-1-yl)methyl)-1-oxoisoindolin-2-yl)piperidine-2,6-dione]",B (80%< substrate protein remaining %≤ 100%),A (0% ≤ substrate protein remaining % ≤ 80%),A (0% ≤ substrate protein remaining % ≤ 80%),A (0% ≤ substrate protein remaining % ≤ 80%),A (0% ≤ substrate protein remaining % ≤ 80%),A (0% ≤ substrate protein remaining % ≤ 80%),< 500,500 to 1000
"O=C1CCC(N2Cc3cc(CN4CCC(c5cccc6c(F)cccc56)CC4)ccc3C2=O)C(=O)N1 (stereo not shown) [GT-04664, 3-(5-((4-(5-fluoronaphthalen-1-yl)piperidin-1-yl)methyl)-1-oxoisoindolin-2-yl)piperidine-2,6-dione]",A (0% ≤ substrate protein remaining % ≤ 80%),A (0% ≤ substrate protein remaining % ≤ 80%),A (0% ≤ substrate protein remaining % ≤ 80%),A (0% ≤ substrate protein remaining % ≤ 80%),A (0% ≤ substrate protein remaining % ≤ 80%),A (0% ≤ substrate protein remaining % ≤ 80%),500 to 1000,100 to 500
"Cc1csc2ncnc(C3=CCN(Cc4ccc5c(c4)CN(C4CCC(=O)NC4=O)C5=O)CC3)c12 (stereo not shown) [GT-04703, 3-(5-((4-(5-methylthieno[2,3-d]pyrimidin-4-yl)-3,6-dihydropyridin-1(2H)-yl)methyl)-1-oxoisoindolin-2-yl)piperidine-2,6-dione]",B (80%< substrate protein remaining %≤ 100%),A (0% ≤ substrate protein remaining % ≤ 80%),A (0% ≤ substrate protein remaining % ≤ 80%),A (0% ≤ substrate protein remaining % ≤ 80%),A (0% ≤ substrate protein remaining % ≤ 80%),A (0% ≤ substrate protein remaining % ≤ 80%),500 to 1000,100 to 500
"O=C1CCC(N2Cc3cc(CN4CCN(c5nc(N6CCOCC6)nc6c5SCC6)CC4)ccc3C2=O)C(=O)N1 (stereo not shown) [GT-04710, 3-(5-((4-(2-morpholino-6,7-dihydrothieno[3,2-d]pyrimidin-4-yl)piperazin-1-yl)methyl)-1-oxoisoindolin-2-yl)piperidine-2,6-dione]",B (80%< substrate protein remaining %≤ 100%),B (80%< substrate protein remaining %≤ 100%),B (80%< substrate protein remaining %≤ 100%),A (0% ≤ substrate protein remaining % ≤ 80%),A (0% ≤ substrate protein remaining % ≤ 80%),A (0% ≤ substrate protein remaining % ≤ 80%),< 500,500 to 1000
